Like-named read-outs stand apart in the source and are kept apart here.
Legend:
[1] = system: Klebsiella pneumoniae NCTC 13368; assay: Broth microdilution MIC; type: cell-based
Klebsiella pneumoniae M6 = assay: Broth microdilution MIC; type: cell-based
[2] = system: Acinetobacter baumannii AYE; assay: Broth microdilution MIC; type: cell-based; settings: Acinetobacter baumannii AYE
[3] = system: Acinetobacter baumannii ATCC 17978; assay: Broth microdilution MIC; type: cell-based
[4] = system: Pseudomonas aeruginosa PAO1; assay: Broth microdilution MIC; type: cell-based
[5] = system: Pseudomonas aeruginosa NCTC 13437; assay: Broth microdilution MIC; type: cell-based
[6] = system: Escherichia coli NCTC 12923; assay: Broth microdilution MIC; type: cell-based
[7] = system: EMR Staphylococcus aureus 15 NCTC 13616; assay: Broth microdilution MIC; type: cell-based; settings: EMR Staphylococcus aureus 15 NCTC 13616
[8] = system: EMR Staphylococcus aureus 16 NCTC 13277; assay: Broth microdilution MIC; type: cell-based; settings: EMR Staphylococcus aureus 16 NCTC 13277
[9] = system: VS Enterococcus faecalis NCTC 775; assay: Broth microdilution MIC; type: cell-based
[10] = system: VR Enterococcus faecalis NCTC 12201; assay: Broth microdilution MIC; type: cell-based; settings: VR Enterococcus faecalis NCTC 12201
[11] = system: VR Enterococcus faecium NCTC 12204; assay: Broth microdilution MIC; type: cell-based; settings: VR Enterococcus faecium NCTC 12204
C. albicans 3179 = assay: Broth microdilution MIC; type: cell-based, Candida albicans; settings: C. albicans 3179
C. albicans 3281 = assay: Broth microdilution MIC; type: cell-based, Candida albicans; settings: C. albicans 3281
C. auris temp probe = assay: Broth microdilution MIC; type: cell-based, Candida auris; settings: C. auris temp probe
C. glabrata 8018 = assay: Broth microdilution MIC; type: cell-based; settings: C. glabrata 8018
C. tropicalis 8760 = assay: Broth microdilution MIC; type: cell-based; settings: C. tropicalis 8760
C. krusei 3876 = assay: Broth microdilution MIC; type: cell-based
C. parapsilosis 3209 = assay: Broth microdilution MIC; type: cell-based
C. parapsilosis = assay: Broth microdilution MIC; type: cell-based
M. smegmatis mc^2 155 = assay: Broth microdilution MIC (Middlebrook 7H9); type: cell-based, Mycobacterium smegmatis
M. tuberculosis Bleupan [12] = assay: microbe, parasite or virus in culture; type: cell-based, Mycobacterium tuberculosis
HEK293 = assay: In vitro toxicity for cell line; type: cell-based, human; settings: HEK293; average ± standard error from 3 independent repeats
From the text: (§1) TABLE 2 Toxicity of bolaamphiphiles for two cell lines^a | column: Toxicity (EC50 [μg/ml]) of: / 12-bis-THA Cl2; Toxicity (EC50 [μg/ml]) of: / Dequalinium; Toxicity (EC50 [μg/ml]) of: / Quino-bola; Toxicity (EC50 [μg/ml]) of: / Penta-bola; Toxicity (EC50 [μg/ml]) of: / Hepta-bola; Toxicity (EC50 [μg/ml]) of: / Octa-bola; Toxicity (EC50 [μg/ml]) of: / Octa-C10; Toxicity (EC50 [μg/ml]) of: / Octa-C8; Toxicity (EC50 [μg/ml]) of: / Octa-C6

HeLa = assay: In vitro toxicity for cell line; type: cell-based, human; settings: average ± standard error from 3 independent repeats
From the text: as §1

P. aeruginosa RP73 = assay: Checkerboard synergy assay; type: cell-based, Pseudomonas aeruginosa
M. tuberculosis Bleupan [13] = type: in vivo, Galleria mellonella
Dynamic light scattering = type: physicochemical
Procedure: Stock solutions of bolalipids were prepared by dispersing the powder in ultrapure water, then stirring vigorously by vortexing, and sonicating in a 40°C bath sonicator for 20 min. The concentration of each stock solution corresponds to the highest solubility achieved in water for each bolalipid, using the method described above. DLS experiments were performed on a Malvern Zetasizer Nano (Malvern Instruments, Worcestershire, UK) in back-scattering mode at 20°C. There were three independent measurements of each sample and 12 runs for each measurement, with 10 s taken for each run. The attenuator index and measurement position were automatically adjusted. Fifty microliters of each sample was transferred into polystyrene semi-microcuvettes for determination of UV and visible wavelengths (Sarstedt).

K. pneumoniae NCTC 13368 = assay: Fixed-concentration (0.25× MIC bolalipid) synergy broth microdilution; type: cell-based, Klebsiella pneumoniae; settings: Klebsiella pneumoniae, NCTC13368, K. pneumoniae NCTC 13368, read-out: MIC of aminoglycoside
K. pneumoniae M6 = assay: as above; type: cell-based; settings: Klebsiella pneumoniae
A. baumannii AYE = assay: as above; type: cell-based; settings: Acinetobacter baumannii
A. baumannii ATCC 17978 = assay: as above; type: cell-based; settings: Acinetobacter baumannii, ATCC17978, A. baumannii ATCC 17978, read-out: MIC of aminoglycoside
P. aeruginosa PAO1 [14] = assay: as above; type: cell-based, Pseudomonas aeruginosa; settings: Pseudomonas aeruginosa, PAO1, P. aeruginosa PAO1, read-out: MIC of aminoglycoside
P. aeruginosa NCTC 13437 [15] = assay: as above; type: cell-based, Pseudomonas aeruginosa; settings: Pseudomonas aeruginosa, NCTC13437, P. aeruginosa NCTC 13437, read-out: MIC of aminoglycoside
E. coli NCTC 12923 = assay: as above; type: cell-based; settings: Escherichia coli, NCTC12923, E. coli NCTC 12923, read-out: MIC of aminoglycoside
P. aeruginosa PAO1 [16] = assay: Checkerboard synergy assay; type: cell-based, Pseudomonas aeruginosa
P. aeruginosa NCTC 13437 [17] = assay: Checkerboard synergy assay; type: cell-based, Pseudomonas aeruginosa
[18] = system: Pseudomonas aeruginosa RP73; assay: Intrahemocoelic G. mellonella infection model; type: in vivo, Galleria mellonella; settings: 96 h
[19] = system: Pseudomonas aeruginosa RP73; assay: In vitro pharmacodynamic (PD) assay; settings: P. aeruginosa RP73; combination 2:1 (wt/wt)
Procedure: In vitro PD assays were performed with Pseudomonas aeruginosa RP73 cultured in Roswell Park Memorial Institute 1640 medium (RPMI) supplemented with 5% Mueller-Hinton broth (MHB) ([35]). Bacteria were cultured overnight in 10 mL of RPMI–5% MHB at 37°C and diluted just prior to plate inoculation to an OD600 of 0.002. Stock solutions of colistin or tobramycin were prepared in sterile MilliQ water at a concentration of 200× MIC. Octa-bola was prepared in methanol at 2,000× MIC and diluted in water to 200× MIC. A dilution series was made in the top row of a polypropylene 96-well plate from 200× MIC to 0.2× MIC in a volume of 100 μL, to which 100 μL of the bacterial suspension was added to have a total of 1 × 10^6 log-phase CFU in 200 μL. The first time zero sample was taken <30 s after addition of bacteria to the plate, with further samples taken at appropriate intervals thereafter. […] Fifteen microliters was removed from each well, diluted 1:1,000 in phosphate-buffered saline, and plated onto RPMI–5% MH agar plates. The plates were incubated at 37°C overnight for CFU counting.
CFU data were log10 transformed, and the bacterial net growth rate was determined from the increase or decrease in CFU during the time of exposure to the antibiotics as the coefficient of a linear regression of log10 CFU as a function of time. The intercept of the regression was fixed by forcing the regression lines through the first CFU measurement (0 min) at a given antimicrobial concentration. The pharmacodynamic function according to Regoes et al. ([36]) describes the relationship between bacterial net growth rate (ψ) and the concentration of an antimicrobial (a): ψmax − ([ψmax − ψmin][a/zMIC])^κ/([a/zMIC]^κ − [ψmin/ψmax]). Fitting this function to the net bacterial growth rates in OriginPro 2020 (OriginLab Corporation, Northampton, MA) generates the parameters ψmin and ψmax (minimum and maximum growth rates, respectively), zMIC (the pharmacodynamic MIC), and κ (a measure of the cooperativity). […]

[20] = in the presence of 0.25× MIC Octa-Bola
[21] = in the presence of 0.25× MIC Octa-C6
[22] = in the presence of 0.25× MIC Octa-C10
[23] = No bola, read-out: MIC of aminoglycoside
[24] = in the presence of 0.25× MIC Octa-Bola, read-out: MIC of aminoglycoside
[25] = in the presence of 0.25× MIC Octa-C6, read-out: MIC of aminoglycoside
[26] = in the presence of 0.25× MIC Octa-C10, read-out: MIC of aminoglycoside

Structure (SMILES): Nc1c2c([n+](CCCCCC[n+]3c4c(c(N)c5ccccc53)CCCCCC4)c3ccccc13)CCCCCC2 [Octa-C6]
- MIC [1]: >32 µg/mL
- MIC (Klebsiella pneumoniae M6): >32 µg/mL
- MIC [2]: >32 µg/mL
- MIC [3]: >32 µg/mL
- MIC [4]: >32 µg/mL
- MIC [5]: >32 µg/mL
- MIC [6]: >32 µg/mL
- MIC [7]: 16 µg/mL
- MIC [8]: 16 µg/mL
- MIC [9]: 32 µg/mL
- MIC [10]: 16 µg/mL
- MIC [11]: 16 µg/mL
- MIC (C. albicans 3179): 8 µg/mL
- MIC (C. albicans 3281): 8 µg/mL
- MIC (C. auris temp probe): >8 µg/mL
- MIC (C. glabrata 8018): >8 µg/mL
- MIC (C. tropicalis 8760): 8 µg/mL
- MIC (C. krusei 3876): >8 µg/mL
- MIC (C. parapsilosis 3209): >8 µg/mL
- MIC (C. parapsilosis): >8 µg/mL
- MIC (M. smegmatis mc^2 155): 1.66 µg/mL
- MIC (M. tuberculosis Bleupan [12]): 0.46 µg/mL
- Toxicity (EC50) (HEK293): 40.0 ± 15.6 µg/mL
- Toxicity (EC50) (HeLa): 64.3 ± 3.6 µg/mL
- MIC alone Bolalipid (P. aeruginosa RP73): 64 µg/mL
- protection (M. tuberculosis Bleupan [13]; all doses tested): did not provide protection
- survival (M. tuberculosis Bleupan [13]; three lower doses (0.01, 0.1, and 1 mg/kg)): survival was significantly worse
- nanoparticle formation (DLS) (Dynamic light scattering; any conditions): Under no conditions did Octa-C6 give evidence of nanoparticle formation
- derived count rate (Dynamic light scattering; concentrations up to 1.65 mM): ≤ 26.3 kcps

Structure (SMILES): NC[C@H]1O[C@H](O[C@H]2[C@H](O)[C@@H](O[C@H]3O[C@H](CO)[C@@H](O)[C@H](N)[C@H]3O)[C@H](N)C[C@@H]2N)[C@H](N)C[C@@H]1O [Tobramycin]
- MIC (K. pneumoniae NCTC 13368; No bola): 8 µg/mL
- MIC (K. pneumoniae NCTC 13368; [20]): 4 µg/mL
- MIC (K. pneumoniae NCTC 13368; [21]): 16 µg/mL
- MIC (K. pneumoniae NCTC 13368; [22]): 8 µg/mL
- MIC (K. pneumoniae M6; [23]): 1 µg/mL
- MIC (K. pneumoniae M6; [24]): 0.5 µg/mL
- MIC (K. pneumoniae M6; [25]): 1 µg/mL
- MIC (K. pneumoniae M6; [26]): 0.25 µg/mL
- MIC (A. baumannii AYE; [23]): 64 µg/mL
- MIC (A. baumannii AYE; [24]): 8 µg/mL
- MIC (A. baumannii AYE; [25]): 16 µg/mL
- MIC (A. baumannii AYE; [26]): 4 µg/mL
- MIC (A. baumannii ATCC 17978; No bola): 2 µg/mL
- MIC (A. baumannii ATCC 17978; [20]): 0.125 µg/mL
- MIC (A. baumannii ATCC 17978; [21]): 0.5 µg/mL
- MIC (A. baumannii ATCC 17978; [22]): 0.5 µg/mL
- MIC (P. aeruginosa PAO1 [14]; No bola): 1 µg/mL
- MIC (P. aeruginosa PAO1 [14]; [20]): 0.5 µg/mL
- MIC (P. aeruginosa PAO1 [14]; [21]): 0.5 µg/mL
- MIC (P. aeruginosa PAO1 [14]; [22]): 0.25 µg/mL
- MIC (P. aeruginosa NCTC 13437 [15]; No bola): 64 µg/mL
- MIC (P. aeruginosa NCTC 13437 [15]; [20]): 8 µg/mL
- MIC (P. aeruginosa NCTC 13437 [15]; [21]): 8 µg/mL
- MIC (P. aeruginosa NCTC 13437 [15]; [22]): 4 µg/mL
- MIC (E. coli NCTC 12923; No bola): 2 µg/mL
- MIC (E. coli NCTC 12923; [20]): 1 µg/mL
- MIC (E. coli NCTC 12923; [21]): 2 µg/mL
- MIC (E. coli NCTC 12923; [22]): 1 µg/mL
- MIC alone Antibiotic (P. aeruginosa PAO1 [16]): 0.5 µg/mL
- MIC alone Antibiotic (P. aeruginosa RP73): 2 µg/mL
- MIC alone Antibiotic (P. aeruginosa NCTC 13437 [17]): 64 µg/mL
- larvae rescued ([18]; 5 mg/kg): 37.5%
- larvae rescued ([18]; 50 mg/kg, 1 × 10^2 CFU per larva): 97.5%
- bactericidal activity (minimum growth rate, ψmin) [19]: weakly bactericidal

From PMC9942557, “Bolaamphiphile Analogues of 12-bis-THA Cl2 Are Potent Antimicrobial Therapeutics with Distinct Mechanisms of Action against Bacterial, Mycobacterial, and Fungal Pathogens” (mSphere, 2022)
